Source: PMC6328428, “Synthesis, Urease Inhibition and Molecular Modelling Studies of Novel Derivatives of the Naturally Occurring β-Amyrenone” (Natural Products and Bioprospecting, 2018)

Columns and labels:
Jack bean Urease = molecular target: T1, Jack bean Urease (Canavalia ensiformis, UniProt P07374); assay: biochemical
T1 construct: purchased Sigma
Protocol: Urease activity was obtained by measuring ammonia production using the indophenol method as described by Bankeu et al., (2017). […] Reaction mixtures with 25 μL of enzyme (Jack bean Urease bought from Sigma) solution and 55 μL of buffers containing 100 mM urea were incubated with 5 μL of compounds 1—4 (1 mM concentration) at 30 °C for 15 min in 96-well plates. In fact, 45 μL each of phenol reagent (1% w/v phenol and 0.005% w/v sodium nitroprusside) and 70 μL of alkali reagent (0.5% w/v NaOH and 0.1% active chloride NaOCl) were added to each well. The absorbance at 630 nm was recorded after 50 min, using a microplate reader (Molecular Device, USA). All reactions were performed in triplicate in a final volume of 200 μL. The results (change in absorbance per min) were processed by using Soft Max Pro software (Molecular Device, USA). All the assays were performed at pH 8.2 (0.01 M K2HPO4·3H2O, 1 mM EDTA and 0.01 M LiCl). Percentage inhibitions were calculated from the formula (Eq. 1):1 Urease inhibition%=100-ODtest/ODcontrol×100 where OD stands for optical density.
Urease inhibition percentages were used to determine the concentration that inhibit 50% of urease activity (IC50) using GraphPad Prism 5.0, USA.
The resulting data are shown as mean ± SD of three independent assays. One way one analysis of variance (ANOVA) was carried out for the determination of difference between groups (GraphPad Prism 5.0, USA). […] was considered as significant.

T1 sequence (P07374 whole entry, looked up): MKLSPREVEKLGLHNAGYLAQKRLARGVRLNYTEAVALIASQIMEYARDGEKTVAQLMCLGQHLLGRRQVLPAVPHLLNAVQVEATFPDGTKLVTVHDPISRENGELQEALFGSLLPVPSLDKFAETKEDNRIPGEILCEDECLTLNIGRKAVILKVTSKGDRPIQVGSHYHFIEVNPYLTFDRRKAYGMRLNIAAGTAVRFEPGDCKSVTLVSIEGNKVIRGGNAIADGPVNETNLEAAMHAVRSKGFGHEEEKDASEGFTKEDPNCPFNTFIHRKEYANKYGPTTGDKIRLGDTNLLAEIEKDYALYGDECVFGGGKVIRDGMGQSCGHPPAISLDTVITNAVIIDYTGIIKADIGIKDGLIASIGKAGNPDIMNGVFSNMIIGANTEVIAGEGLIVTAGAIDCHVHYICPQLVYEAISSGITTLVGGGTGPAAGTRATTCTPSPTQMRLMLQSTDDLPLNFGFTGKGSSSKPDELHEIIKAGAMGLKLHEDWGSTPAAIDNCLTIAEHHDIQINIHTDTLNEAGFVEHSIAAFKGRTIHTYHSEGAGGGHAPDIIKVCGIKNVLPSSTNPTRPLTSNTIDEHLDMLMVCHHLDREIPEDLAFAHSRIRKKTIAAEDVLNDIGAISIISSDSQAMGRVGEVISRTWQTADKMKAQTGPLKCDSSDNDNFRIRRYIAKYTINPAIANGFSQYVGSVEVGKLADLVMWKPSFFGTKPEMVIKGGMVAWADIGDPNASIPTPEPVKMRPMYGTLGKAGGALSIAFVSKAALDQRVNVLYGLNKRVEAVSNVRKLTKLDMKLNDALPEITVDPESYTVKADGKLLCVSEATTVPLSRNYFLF

| Compound | IC50 (Jack bean Urease) | melting point |
| --- | --- | --- |
| CC1(C)CC[C@]2(C)CC[C@]3(C)C(=CCC4[C@@]5(C)CCC(=O)C(C)(C)[C@@H]5CC[C@]43C)[C@H]2C1 (stereo partly drawn) [Compound 1, β-Amyrenone] | 14.5 ± 0.21 µM |  |
| CC1(C)CCC2(C)CCC3(C)C(=CCC4C5(C)CC/C(=N\Nc6ccc([N+](=O)[O-])cc6[N+](=O)[O-])C(C)(C)C5CCC43C)C2C1 (centres unmarked) [Compound 2, (E)-1-(2,4-Dinitrophenyl)-2-(4,4,6a,6b,8a,11,11,14b-octamethyl-1,4,4a,5,6,6a,6b,7,8,8a,9,10,11,12,12a,14,14a,14b-octadecahydropicen-3(2H)-ylidene)hydrazine] | 24.6 ± 0.17 µM | 260 °C |
| COc1ccc2[nH]c3c(c2c1)C[C@]1(C)C2CC=C4[C@H]5CC(C)(C)CC[C@]5(C)CC[C@@]4(C)[C@]2(C)CC[C@H]1C3(C)C (stereo partly drawn) [Compound 3, (4aR,6aS,6bR,8aR,15aR,17bS)-13-Methoxy-2,2,4a,6a,6b,9,9,15a-octamethyl-2,3,4,4a,5,6,6a,6b,7,8,8a,9,10,15,15a,15b,16,17b-octadecahydro-1H-chryseno[2,1-b]carbazole] | 22.2 ± 0.9 µM |  |
| CC1(C)CC[C@]2(C)CC[C@]3(C)C(=CCC4[C@@]5(C)Cc6c([nH]c7ccccc67)C(C)(C)[C@@H]5CC[C@]43C)[C@H]2C1 (stereo partly drawn) [Compound 4, (4aR,6aS,6bR,8aR,15aR,17bS)-2,2,4a,6a,6b,9,9,15a-Octamethyl-2,3,4,4a,5,6,6a,6b,7,8,8a,9,10,15,15a,15b,16,17b-octadecahydro-1H-chryseno[2,1-b]carbazole] | 17.9 ± 0.45 µM |  |
